Data as given in paper PMC11100771, “Structural basis of ligand specificity and channel activation in an insect gustatory receptor” (Cell reports, 2024).
pEC50: −log10 of the molar value.

Biological target: T1, Bombyx mori Gr9 (BmGr9) (Bombyx mori, UniProt B3GTD7)
T1 construct: N-terminally Twin-Strep-tagged BmGr9, homotetramer
T1 sequence (B3GTD7 1-449): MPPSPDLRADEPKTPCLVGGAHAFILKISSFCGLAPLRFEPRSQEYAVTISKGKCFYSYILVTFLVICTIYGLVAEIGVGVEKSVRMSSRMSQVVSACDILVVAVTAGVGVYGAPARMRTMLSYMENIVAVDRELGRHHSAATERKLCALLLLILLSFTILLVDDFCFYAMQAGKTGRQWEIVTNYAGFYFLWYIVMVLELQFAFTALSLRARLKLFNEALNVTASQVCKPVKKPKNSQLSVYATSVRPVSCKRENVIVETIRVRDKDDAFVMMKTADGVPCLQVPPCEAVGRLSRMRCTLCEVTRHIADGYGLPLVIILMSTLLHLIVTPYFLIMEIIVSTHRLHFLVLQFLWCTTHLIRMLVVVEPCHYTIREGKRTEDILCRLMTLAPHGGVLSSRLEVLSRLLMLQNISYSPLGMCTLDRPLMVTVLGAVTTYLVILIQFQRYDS
Assay: cryo-EM structure ([…] Å) with […] D-fructose; EC50 by two-electrode voltage clamp in Xenopus oocytes
Type: cell-based

pEC50: 1.66
Compound: OCC1(O)OC[C@@H](O)[C@@H](O)[C@@H]1O (stereo partly drawn) [D-fructose]
